Tests used:
[1] = target: T1, DAT (h) (antagonist radioligand) (Homo sapiens, UniProt Q01959); experiment: Radioligand binding panel (Eurofins/CEREP), DAT; conditions: % inhibition of control specific binding
T1 construct: CEREP (Eurofins, France), contract panel
Protocol: Benedin was tested at 10^−5 M, calculated as a % inhibition of control specific binding of a radioactively labeled ligand specific for each target.
This binding profile panel was broadly defined with roughly an equal number of selective, central and peripheral therapeutically relevant targets, including native animal tissues, radioligands and specific enzymes involved in cell cycle regulation in accordance with Eurofins Standard Operating Procedure.
For radioligand binding experiments, the half maximal inhibitory concentration (IC50) and the half maximal effective concentration (EC50) values were determined (via computer software) by nonlinear regression analysis of the competition curves using Hill equation curve fitting. The inhibition constants (Ki) were calculated using the Cheng-Prusoff equation (Ki=IC50/(1+(L/KD)), where L is the concentration of radioligand in the assay, and KD is the affinity of the radioligand for the receptor.^60
The results are expressed as a % control specific binding ([measured specific binding/control specific binding]×100) and as a % inhibition of control specific binding (100−[(measured specific binding/control specific binding)×100] obtained in the presence of the test compounds. […]

[2] = system: Mice, C57BL/6J, male; experiment: Novel object recognition (NOR) test, long-term memory; type: in vivo; conditions: for DI Discrimination Index = 100 × (N − F)/(N + F) / N − F Exploration time novel − familiar object: choice trial 72 h post treatment, mean, N = 16; for recognition of the familiar object, i.e. memory: 3-days interval
Protocol: Long-term episodic memory was tested in the NOR test, using a 3-days interval between the acquisition session (called sample trial) and the retention session (called choice trial). This method allows to detect an improvement of memory in the natural forgetting condition:
The test was carried out in circular boxes (30 cm diameter, 40 cm high). The objects to be discriminated (L≈1≈h≈3-4 cm) differed in both color and shape and were referred as yellow duck and blue lego. They were fixed with a magnet to the floor of the boxes at 5 cm of the wall, 20 cm distant. Apparently, they have no natural significance for mice and they have never been associated with a reinforcement. In order to rule out the possibility of scent traces left on the objects and therefore the dependency of the recognition capacity of mice on the olfactory cue, the objects and the ground of the box were washed with an odorless disinfectant (Sanicid® diluted in water) and dried between each trial. A camcorder was fixed to the ceiling above the box to record the animals' activity. The experiment was analyzed blindly at a later time.
On the week before the test, animals were handled by the experimenter in charge of the experiment in order to be not stressed at the time of testing. For this purpose, the experimenter placed a small amount of litter, and then the mouse on its hand. […] The NOR test was completed over five days (see FIG. 1): • Day 1: Habituation trial. Animals were individually placed for a 15-min free exploration session in empty open boxes. • Day 2. Treatment administration and sample trial. […] They were individually placed 30 min after in the apparatus for a 6-min session with two identical objects (Duck, 50% of animals or Lego, 50% of animals). • […]. […]. The mice were individually placed for a 6-min session in the apparatus with two objects (Duck and Lego), one of the objects presented in sample trials (termed as familiar objects) and a novel object (Lego, 50% of animals or Duck, 50% of animals).
The sample and choice trials were recorded with the camera located above the apparatus. The time spent by mice in exploring the objects was measured during the sample trial and the choice trial.
Exploration of an object was defined as follows: directing the nose to the object at a distance≤2 cm and/or touching it with the nose or forelimbs: turning around or biting the object, or sitting on the object were not considered as exploratory behavior.
Data recorded: • L=exploration time of the left object in the sample trial. • R=exploration time of the right object in the sample trial. • N=exploration time of the new object in the choice trial. • F=exploration time of the familiar object in the choice trial. Object recognition task indices include the following parameters: • Exploration indices: • ST=L+R=exploration time (left object+right object) in the sample trial. • CT=N+F=exploration time (new object+familiar object) in the choice trial. • Two memory indices: • N−F=difference of exploration time between the new object and the familiar object in the choice trial.
Statistical analyses: • Read-outs: DI, N−F, ST, CT, N, F • Unpaired Student's t test: Donep 2 group vs. Control group. • One-way ANOVA, Dunnett test: • Benedin groups vs. Control group. • Benedin groups vs. Donep 2 group. • Read-outs: DI and N−F, for all groups, paired Student's t test, difference vs. 0. • Body weight: one-way ANOVA.

T1 sequence (Q01959 whole entry): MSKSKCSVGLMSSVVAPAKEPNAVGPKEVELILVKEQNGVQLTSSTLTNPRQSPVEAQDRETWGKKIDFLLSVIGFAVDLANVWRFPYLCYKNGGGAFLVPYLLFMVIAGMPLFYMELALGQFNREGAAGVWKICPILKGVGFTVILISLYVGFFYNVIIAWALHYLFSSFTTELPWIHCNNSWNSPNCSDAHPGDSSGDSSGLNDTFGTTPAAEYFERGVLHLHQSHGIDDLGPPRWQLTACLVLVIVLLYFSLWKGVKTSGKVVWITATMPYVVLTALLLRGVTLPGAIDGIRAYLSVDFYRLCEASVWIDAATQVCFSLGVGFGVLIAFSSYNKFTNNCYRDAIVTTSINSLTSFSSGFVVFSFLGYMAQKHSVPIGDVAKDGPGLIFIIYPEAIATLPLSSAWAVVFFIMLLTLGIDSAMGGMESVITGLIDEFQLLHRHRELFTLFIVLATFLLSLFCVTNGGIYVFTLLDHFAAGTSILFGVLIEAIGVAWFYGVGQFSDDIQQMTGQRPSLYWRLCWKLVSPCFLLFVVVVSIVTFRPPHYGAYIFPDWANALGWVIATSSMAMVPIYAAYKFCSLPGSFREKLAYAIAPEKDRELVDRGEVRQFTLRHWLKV

SMILES: CN1CCCC(O)C1C(c1ccccc1)c1ccccc1 (centres unmarked) [Benedin, 2-benzhydryl-3-hydroxy-N-methyl-piperidine]
- inhibition at 10 µM ([1]; 10^−5 M, read-out: % Inhibition at 10^−5M Benedin): 99.1%
- % Inhibition at 10^−5M Benedin [1]: appreciable potencies
- DI Discrimination Index = 100 × (N − F)/(N + F) ([2]; Benedin 0.1 mg/kg i.p. 30 min before sample trial): not significantly different from 0
- DI Discrimination Index = 100 × (N − F)/(N + F) ([2]; Benedin 0.1 mg/kg i.p. 30 min before sample trial, listed as NLS-11): 12.0
- recognition of the familiar object, i.e. memory ([2]; Benedin 0.1 mg/kg i.p.): not significant
- N − F Exploration time novel − familiar object ([2]; Benedin 0.1 mg/kg i.p.): not significantly different from 0
- N − F Exploration time novel − familiar object ([2]; Benedin 0.1 mg/kg i.p., listed as NLS-11): 3.4 s
- DI Discrimination Index = 100 × (N − F)/(N + F) ([2]; Benedin 0.5 mg/kg i.p. 30 min before sample trial): significantly higher than 0
- DI Discrimination Index = 100 × (N − F)/(N + F) ([2]; Benedin 0.5 mg/kg i.p. 30 min before sample trial, listed as NLS-11): 23.5
- recognition of the familiar object, i.e. memory ([2]; Benedin 0.5 mg/kg i.p.): significant
- N − F Exploration time novel − familiar object ([2]; Benedin 0.5 mg/kg i.p.): significantly higher than 0
- N − F Exploration time novel − familiar object ([2]; Benedin 0.5 mg/kg i.p., listed as NLS-11): 6.2 s
- DI Discrimination Index = 100 × (N − F)/(N + F) ([2]; Benedin 1 mg/kg i.p. 30 min before sample trial): not significantly different from 0
- DI Discrimination Index = 100 × (N − F)/(N + F) ([2]; Benedin 1 mg/kg i.p. 30 min before sample trial, listed as NLS-11): 13.0
- recognition of the familiar object, i.e. memory ([2]; Benedin 1 mg/kg i.p.): not significant
- N − F Exploration time novel − familiar object ([2]; Benedin 1 mg/kg i.p.): not significantly different from 0
- N − F Exploration time novel − familiar object ([2]; Benedin 1 mg/kg i.p., listed as NLS-11): 4.0 s

Reference: patent US20240316023A1, “BENEDIN, PIPERIDINE, 2-BENZHYDRYL-3-HYDROXY-N-METHYL-, HYDROCHLORIDE AND DERIVATIVES THEREOF FOR USE IN TREATING KLEINE-LEVIN SYNDROME” (priority 2021, published 2024)
